Assay results taken from US20230286968A1, “ARYLOXAZOLO SPIRAL RING DERIVATIVES FOR THE TREATMENT AND PROPHYLAXIS OF HEPATITIS B VIRUS INFECTION” (Hoffmann-La Roche Inc., priority 2020, published 2023).
Read-outs that look alike come from different tables or passages of the source.

Experiments:
[1] = Cytotoxicity in PHH natural infection assay (Cell Counting Kit-8); type: cell-based; conditions: HBV-infected primary human hepatocytes, CCK8
Procedure: (§1) Detailed procedures regarding primary human hepatocyte (PHH) HBV natural infection assay are described as below. One tube of frozen PHH (10 million cells) is thawed in 37° C. water bath and then transferred to 20 mL of PHH thawing medium (Sigma, InVitroGRO HT Medium, Cat. S03319) with gently mixing. The cells were then centrifuged at […] for 5 min, the supernatant was discarded and the tube was refilled with 25 mL of PHH plating medium (Sigma, InVitroGRO CP Medium, Cat. S03317). The tube was shaken very gently to re-suspend all cells, and then 50 μL of cells were transferred to each well 384-well collagen I coated plate with appropriate liquid handling equipment, e.g. Integra VIAFLO384 or Agilent Bravo. The cells were then cultured for 24 hours in a cell incubator. For HBV infection, after PHH attachment on the culture plate, the plating medium was removed and replenished with PHH culture medium containing HBV virus. The PHH culture medium was prepared with Dulbecco's Modified Eagle Medium (DMEM)/F12 (1:1 in volume ratio) containing 10% fetal bovine serum (Gibco, Cat. 10099141), 5 ng/mL human epidermal growth factor (Gibco, Cat.PHG0311L), 20 ng/mL dexamethasone (Sigma, Cat.D4902-100 mg), 250 ng/mL human recombinant insulin (Gibco, Cat.41400045) and 100 U/mL penicillin. HBV virus at 200 genome equivalent (GE) per cell with 4% PEG8000 (Sigma, Cat.P1458) containing culture medium were added to the PHH culture medium for infection. The cells were then cultured for 24 hours in cell incubator. Then the cell culture supernatant was removed. The HBV-infected PHH were cultured with sandwich culture method with PHH culture medium containing […] and 0.25 mg/mL matrix gel for 72 hours. The supernatant was then refreshed with PHH culture medium containing different concentrations of testing compounds for two times with 72-hour interval. At the end of treatment, the supernatant was collected for viral markers measurements, including HBsAg, HBeAg, HBV DNA and cytotoxicity. HBsAg and HBeAg were detected using alphalisa method using their specific antibodies. For HBV DNA detection, HBV DNA Quantitative Fluorescence Diagnostic Kit (Sansure Biotech Inc.) was used following the manufacture's protocol. Cytotoxicity was determined using Cell Counting Kit-8 (CCK8, Dojindo Molecular Technologies, Inc.).

HBsAg = assay: PHH natural infection assay, HBsAg (alphalisa); type: cell-based, HBV
Procedure: as §1
(§2) The compounds of the present invention were tested for their capacity to inhibit HBsAg and HBeAg as described herein.

HBeAg = assay: PHH natural infection assay, HBeAg (alphalisa); type: cell-based, HBV
Procedure: as §1, §2

[2] = read-out: HBsAg IC50, HBV-infected primary human hepatocytes, supernatant, alphalisa
[3] = read-out: HBeAg IC50, HBV-infected primary human hepatocytes, supernatant, alphalisa
[4] = Hepatitis B virus, Hepatocyte, read-out: HBsAg IC50, HBV-infected primary human hepatocytes, supernatant, alphalisa
[5] = Hepatitis B virus, Hepatocyte, read-out: HBeAg IC50, HBV-infected primary human hepatocytes, supernatant, alphalisa

| SMILES | CC50 at 144 h [1] [µM] | IC50 (HBsAg; [2]) [nM] | IC50 (HBeAg; [3]) [nM] | IC50 (HBsAg; [4]) [nM] | IC50 (HBeAg; [5]) [nM] |
| --- | --- | --- | --- | --- | --- |
| [H][C@]1(NC(=O)c2ccnc(S(=O)(=O)C3CC3)c2)C[C@]2(C1)C[C@]([H])(c1nc3cc(Cl)ccc3o1)C2 (single isomer, unassigned) [Example 84a, (Ra)—N-[6-(5-chloro-1,3-benzoxazol-2-yl)spiro[3.3]heptan-2-yl]-2-cyclopropylsulfonyl-pyridine-4-carboxamide] | 84.3 | 70 | 130 |  |  |
| O=C(CC1CCCS1(=O)=O)NC1CC2(C1)CC(c1nc3cc(Cl)ccc3o1)C2 (stereo not drawn) [Example 47, N-[6-(5-chloro-1,3-benzoxazol-2-yl)spiro[3.3]heptan-2-yl]-2-(1,1-dioxothiolan-2-yl)acetamide] | > 100 |  |  | 3460 | 2100 |
| CS(=N)(=O)c1cc(C(=O)NC2CC3(C2)CC(c2nc4cc(Cl)ccc4o2)C3)ccn1 (stereo not drawn) [Example 89, N-[6-(5-chloro-1,3-benzoxazol-2-yl)spiro[3.3]heptan-2-yl]-2-(methylsulfonimidoyl)pyridine-4-carboxamide] | > 100 |  |  | 2450 | 860 |
| N=C(N)c1cc(C(=O)NC2CC3(C2)CC(c2nc4cc(Cl)ccc4o2)C3)ccn1 (stereo not drawn) [Example 96, 2-Carbamimidoyl-N-[6-(5-chloro-1,3-benzoxazol-2-yl)spiro[3.3]heptan-2-yl]pyridine-4-carboxamide] | > 10 |  |  | 7600 | 5650 |
| O=C(NC1CC2(C1)CC(c1nc3cc(Cl)ccc3o1)C2)c1ccnc(S(=O)(=O)C2CC2)c1 (stereo not drawn) [Example 83, N-[6-(5-chloro-1,3-benzoxazol-2-yl)spiro[3.3]heptan-2-yl]-2-cyclopropylsulfonyl-pyridine-4-carboxamide] | 90.5 |  |  | 140 | 50 |
| CN1CC(C(=O)NC2CC3(C2)CC(c2nc4cc(Cl)ccc4o2)C3)CC1=O (stereo not drawn) [Example 30, N-[6-(5-chloro-1,3-benzoxazol-2-yl)spiro[3.3]heptan-2-yl]-1-methyl-5-oxo-pyrrolidine-3-carboxamide] | > 100 |  |  | 3890 | 2650 |
| [H][C@]1(NC(=O)c2ccnc(S(=O)(=O)C3CC3)c2)C[C@@]2(C1)C[C@]([H])(c1nc3cc(Cl)ccc3o1)C2 (single isomer, unassigned) [Example 84b, (Sa)—N-[6-(5-chloro-1,3-benzoxazol-2-yl)spiro[3.3]heptan-2-yl]-2-cyclopropylsulfonyl-pyridine-4-carboxamide] | > 10 | 1900 | 1610 |  |  |
| O=C1CCC(CC(=O)NC2CC3(C2)CC(c2nc4cc(Cl)ccc4o2)C3)N1 (stereo not drawn) [Example 37, N-[6-(5-chloro-1,3-benzoxazol-2-yl)spiro[3.3]heptan-2-yl]-2-(5-oxopyrrolidin-2-yl)acetamide] | > 10 |  |  | 6000 | 3750 |
| NS(=O)(=O)CCC(=O)NC1CC2(C1)CC(c1nc3cc(Cl)ccc3o1)C2 (stereo not drawn) [Example 38, N-[6-(5-chloro-1,3-benzoxazol-2-yl)spiro[3.3]heptan-2-yl]-3-sulfamoyl-propanamide] | > 10 |  |  | 9480 | 5490 |
| CS(=O)(=O)N1CCC(C(=O)NC2CC3(C2)CC(c2nc4cc(Cl)ccc4o2)C3)C1 (stereo not drawn) [Example 69, N-[6-(5-chloro-1,3-benzoxazol-2-yl)spiro[3.3]heptan-2-yl]-1-methylsulfonyl-pyrrolidine-3-carboxamide] | > 100 |  |  | 1790 | 1310 |
| O=C(NC1CC2(C1)CC(c1nc3cc(Cl)ccc3o1)C2)C1CS(=O)(=O)C1 (stereo not drawn) [Example 49, N-[6-(5-chloro-1,3-benzoxazol-2-yl)spiro[3.3]heptan-2-yl]-1,1-dioxo-thietane-3-carboxamide] | 96.1 |  |  | 3270 | 2610 |
| O=C(CC1CS(=O)(=O)C1)NC1CC2(C1)CC(c1nc3cc(Cl)ccc3o1)C2 (stereo not drawn) [Example 50, N-[6-(5-chloro-1,3-benzoxazol-2-yl)spiro[3.3]heptan-2-yl]-2-(1,1-dioxothietan-3-yl)acetamide] | > 100 |  |  | 1960 | 1360 |
| [H][C@]1(C(=O)N[C@]2([H])C[C@@]3(C2)C[C@@]([H])(c2nc4cc(Cl)ccc4o2)C3)CC(=O)N(C)C1 (single isomer, unassigned) [Example 94d] | > 100 |  |  | 2570 | 1460 |
| O=C(NC1CC2(C1)CC(c1nc3cc(Cl)ccc3o1)C2)c1ccncc1 (stereo not drawn) [Example 3, N-[6-(5-chloro-1,3-benzoxazol-2-yl)spiro[3.3]heptan-2-yl]pyridine-4-carboxamide] | > 100 |  |  | 8190 | 4390 |
| N=S(=O)(c1cc(C(=O)NC2CC3(C2)CC(c2nc4cc(Cl)ccc4o2)C3)ccn1)C1CC1 (stereo not drawn) [Example 86, N-[6-(5-chloro-1,3-benzoxazol-2-yl)spiro[3.3]heptan-2-yl]-2-(cyclopropylsulfonimidoyl)pyridine-4-carboxamide] | > 100 |  |  | 640 | 420 |
| O=C(NC1CC2(C1)CC(c1nc3cc(Cl)ccc3o1)C2)c1ccccn1 (stereo not drawn) [Example 1, N-[6-(5-chloro-1,3-benzoxazol-2-yl)spiro[3.3]heptan-2-yl]pyridine-2-carboxamide] | 74.8 |  |  | 9750 | 7890 |
| CNS(=O)(=O)Nc1cc(C(=O)NC2CC3(C2)CC(c2nc4cc(Cl)ccc4o2)C3)ccn1 (stereo not drawn) [Example 22, N-[6-(5-chloro-1,3-benzoxazol-2-yl)spiro[3.3]heptan-2-yl]-2-(methylsulfamoylamino)pyridine-4-carboxamide] | > 10 |  |  | 4940 | 4380 |
| CS(=O)(=O)c1cc(C(=O)NC2CC3(C2)CC(c2nc4cc(Cl)ccc4o2)C3)ccn1 (stereo not drawn) [Example 23, N-[6-(5-chloro-1,3-benzoxazol-2-yl)spiro[3.3]heptan-2-yl]-2-methylsulfonyl-pyridine-4-carboxamide] | 94.1 |  |  | 570 | 490 |
| [H][C@]1(NC(=O)c2ccnc(S(C)(=O)=O)c2)C[C@]2(C1)C[C@]([H])(c1nc3cc(Cl)ccc3o1)C2 (single isomer, unassigned) [Example 87-a, (Ra)—N-[6-(5-chloro-1,3-benzoxazol-2-yl)spiro[3.3]heptan-2-yl]-2-methylsulfonyl-pyridine-4-carboxamide] | > 10 | 200 | 220 |  |  |
| CS(=O)(=O)c1cc(C(=O)NC2CC3(C2)CC(c2nc4cc(Cl)cnc4o2)C3)ccn1 (stereo not drawn) [Example 88, N-[6-(6-chlorooxazolo[5,4-b]pyridin-2-yl)spiro[3.3]heptan-2-yl]-2-methylsulfonyl-pyridine-4-carboxamide] | > 10 |  |  | 2420 | 1650 |
| O=C(NC1CC2(C1)CC(c1nc3cc(Cl)ccc3o1)C2)C1CCN(S(=O)(=O)C2CC2)C1 (stereo not drawn) [Example 72, N-[6-(5-chloro-1,3-benzoxazol-2-yl)spiro[3.3]heptan-2-yl]-1-cyclopropylsulfonyl-pyrrolidine-3-carboxamide] | > 10 |  |  | 9560 | 4430 |
| O=C(NC1CC2(C1)CC(c1nc3cc(C(F)(F)F)ccc3o1)C2)C1CCS(=O)(=O)CC1 (stereo not drawn) [Example 57, 1,1-dioxo-N-[6-[5-(trifluoromethyl)-1,3-benzoxazol-2-yl]spiro[3.3]heptan-2-yl]thiane-4-carboxamide] | > 100 |  |  | 4470 | 3590 |
